In ChEMBL document CHEMBL1153762, “Novel, broad-spectrum anticonvulsants containing a sulfamide group: advancement of N-((benzo[b]thien-3-yl)methyl)sulfamide (JNJ-26990990) into human clinical studies” (J Med Chem, 2009):
Calls of active or inactive are those of the source.

Tests used:
[1] = Plasma concentration in rat assessed as unchanged compound remaining at 59.2 kBq/mg, po after 4 hrs by MS/MS analysis; format: ADME, organism-based; settings: read-out: Activity
[2] = test system: Plasma; test: Metabolic stability in rat plasma assessed as formation of N-[(1-oxido-1-benzothien-3-yl)methyl]sulfamide at 59.2 kBq/mg, po after 4 hrs by MS/MS analysis; format: ADME, organism-based; settings: in vivo
[3] = test system: Plasma; test: Metabolic stability in rat plasma assessed as formation of benzothiophene-3-carboxylic acid at 59.2 kBq/mg, po after 4 hrs by MS/MS analysis; format: ADME, organism-based; settings: in vivo
[4] = Metabolic stability in rat urine assessed as formation of N-[(1-oxido-1-benzothien-3-yl)methyl]sulfamide at 59.2 kBq/mg, po after 24 hrs by MS/MS analysis; format: ADME, organism-based; settings: in vivo
[5] = Metabolic stability in rat urine assessed as formation of benzothiophene-3-carboxylic acid at 59.2 kBq/mg, po after 8 to 24 hrs by MS/MS analysis; format: ADME, organism-based; settings: in vivo
[6] = Metabolic stability in rat urine assessed as formation of [(Benzo[b]thiophene-3-carbonyl)-amino]-acetic acid at 59.2 kBq/mg, po after 8 to 24 hrs by MS/MS analysis; format: ADME, organism-based; settings: in vivo
[7] = test system: Plasma; test: Metabolic stability in rat plasma assessed as formation of biotransformation product N-[(1-oxido-1-benzothien-3-yl)methyl]sulfamide at 500 mg, po up to 72 hrs by MS/MS analysis; format: ADME, organism-based; settings: in vivo
[8] = Metabolic stability in rat urine assessed as formation of biotransformation product N-[(1-oxido-1-benzothien-3-yl)methyl]sulfamide at 500 mg, po up to 24 hrs by MS/MS analysis; format: ADME, organism-based; settings: in vivo
[9] = test system: Mus musculus; test: Anticonvulsant activity against maximal electroshock-induced seizure in po dosed CF1 mouse after 1 hr; format: functional; settings: Mus musculus, CF1, po, 1 h; read-out: ED50
[10] = test system: Mus musculus; test: Anticonvulsant activity against maximal electroshock-induced seizure in po dosed CF1 mouse after 3 hrs; format: functional
[11] = biological target: Carbonic anhydrase 2 (Homo sapiens, UniProt P00918); test: Inhibition of human carbonic anhydrase 2 by fluorimetric assay
[12] = biological target: Carbonic anhydrase 1 (Homo sapiens, UniProt P00915); test: Inhibition of carbonic anhydrase 1
Sequence of Carbonic anhydrase 1 (P00915 whole entry): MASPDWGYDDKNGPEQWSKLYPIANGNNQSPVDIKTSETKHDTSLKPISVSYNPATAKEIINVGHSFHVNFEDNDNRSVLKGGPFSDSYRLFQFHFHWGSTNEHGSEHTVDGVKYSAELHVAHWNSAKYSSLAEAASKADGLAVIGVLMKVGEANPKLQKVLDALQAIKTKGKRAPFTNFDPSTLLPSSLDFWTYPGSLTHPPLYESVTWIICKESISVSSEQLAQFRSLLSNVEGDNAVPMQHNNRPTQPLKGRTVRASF

[13] = test system: Mus musculus; test: Anticonvulsant activity against bicuculline-induced seizure in ip dosed CF1 mouse after 0.25 hrs; format: functional; settings: Mus musculus, CF1, ip, 0.25 h; read-out: ED50
[14] = test system: Mus musculus; test: Anticonvulsant activity against picrotoxin-induced seizure in ip dosed CF1 mouse after 0.25 hrs; format: functional
[15] = test system: Mus musculus; test: Anticonvulsant activity against pentylenetetrazole-induced seizure in ip dosed CF1 mouse after 0.25 hrs; format: functional; settings: Mus musculus, CF1, ip, 0.25 h; read-out: ED50
[16] = test system: Mus musculus; test: Anticonvulsant activity against pentylenetetrazole-induced seizure in CF1 mouse assessed as increase in threshold of seizure twitch at 107 mg/kg, ip administered 15 mins before pentylenetetrazole infusion; format: functional; settings: route intraperitoneal
[17] = test system: Mus musculus; test: Anticonvulsant activity against pentylenetetrazole-induced seizure in CF1 mouse assessed as increase in seizure threshold for clonus at 107 mg/kg, ip administered 15 mins before pentylenetetrazole infusion; format: functional; settings: route intraperitoneal
[18] = test system: Mus musculus; test: Anticonvulsant activity against pentylenetetrazole-induced seizure in CF1 mouse assessed as increase in threshold of seizure twitch at 182 mg/kg, ip administered 15 mins before pentylenetetrazole infusion; format: functional; settings: route intraperitoneal
[19] = test system: Mus musculus; test: Anticonvulsant activity against pentylenetetrazole-induced seizure in CF1 mouse assessed as increase in seizure threshold for clonus at 182 mg/kg, ip administered 15 mins before pentylenetetrazole infusion; format: functional; settings: route intraperitoneal
[20] = Neurotoxicity in ip dosed mouse assessed as motor impairment by rotarod test; format: toxicity, organism-based; settings: in vivo
[21] = Neurotoxicity in po dosed rat assessed as motor impairment by rotarod test; format: toxicity, organism-based; settings: in vivo
[22] = test system: Rattus norvegicus; test: Anticonvulsant activity against maximal electroshock-induced seizure in po dosed Sprague-Dawley rat after 2 hrs; format: functional; settings: Rattus norvegicus, Sprague-Dawley, po, 2 h; read-out: ED50
[23] = test system: Mus musculus; test: Anticonvulsant activity against audiogenic seizures in ip dosed AGS mouse assessed as inhibition of hindlimb tonic extension administered 1 hr prior to 11 kHz sound induction; format: functional; settings: Mus musculus, AGS, Hindlimb, ip; read-out: ED50
[24] = test system: Mus musculus; test: Ratio of compound ED50 to topiramate ED50 for anticonvulsant activity against audiogenic seizures in ip dosed AGS mouse; format: functional
[25] = test system: Rattus norvegicus; test: Anticonvulsant activity against electric stimulation-induced focal seizure in ip dosed Sprague-Dawley rat kindling model assessed as reduction of after-discharge duration administered 15 mins after last electric stimulation measured after 15 mins to 1 hr; format: functional; parameters: scale not given: the % may be the effect or the level left
[26] = test system: Rattus norvegicus; test: Protective index, ratio of TD50 for neurotoxicity in po dosed rat to ED50 for anticonvulsant activity against maximal electroshock-induced seizure in po dosed rat; format: functional
[27] = biological target: Sodium channel protein type 2 subunit alpha (Rattus norvegicus) (UniProt P04775); test: Inhibition of rat Nav1.2 channel expressed in chinese hamster CHL1610 cells at preconditioning pulse of -107 mV after 2 to 3 mins by whole-cell patch-clamp technique; format: cell-based
Sequence of Sodium channel protein type 2 subunit alpha (Rattus norvegicus) (P04775 whole entry, looked up): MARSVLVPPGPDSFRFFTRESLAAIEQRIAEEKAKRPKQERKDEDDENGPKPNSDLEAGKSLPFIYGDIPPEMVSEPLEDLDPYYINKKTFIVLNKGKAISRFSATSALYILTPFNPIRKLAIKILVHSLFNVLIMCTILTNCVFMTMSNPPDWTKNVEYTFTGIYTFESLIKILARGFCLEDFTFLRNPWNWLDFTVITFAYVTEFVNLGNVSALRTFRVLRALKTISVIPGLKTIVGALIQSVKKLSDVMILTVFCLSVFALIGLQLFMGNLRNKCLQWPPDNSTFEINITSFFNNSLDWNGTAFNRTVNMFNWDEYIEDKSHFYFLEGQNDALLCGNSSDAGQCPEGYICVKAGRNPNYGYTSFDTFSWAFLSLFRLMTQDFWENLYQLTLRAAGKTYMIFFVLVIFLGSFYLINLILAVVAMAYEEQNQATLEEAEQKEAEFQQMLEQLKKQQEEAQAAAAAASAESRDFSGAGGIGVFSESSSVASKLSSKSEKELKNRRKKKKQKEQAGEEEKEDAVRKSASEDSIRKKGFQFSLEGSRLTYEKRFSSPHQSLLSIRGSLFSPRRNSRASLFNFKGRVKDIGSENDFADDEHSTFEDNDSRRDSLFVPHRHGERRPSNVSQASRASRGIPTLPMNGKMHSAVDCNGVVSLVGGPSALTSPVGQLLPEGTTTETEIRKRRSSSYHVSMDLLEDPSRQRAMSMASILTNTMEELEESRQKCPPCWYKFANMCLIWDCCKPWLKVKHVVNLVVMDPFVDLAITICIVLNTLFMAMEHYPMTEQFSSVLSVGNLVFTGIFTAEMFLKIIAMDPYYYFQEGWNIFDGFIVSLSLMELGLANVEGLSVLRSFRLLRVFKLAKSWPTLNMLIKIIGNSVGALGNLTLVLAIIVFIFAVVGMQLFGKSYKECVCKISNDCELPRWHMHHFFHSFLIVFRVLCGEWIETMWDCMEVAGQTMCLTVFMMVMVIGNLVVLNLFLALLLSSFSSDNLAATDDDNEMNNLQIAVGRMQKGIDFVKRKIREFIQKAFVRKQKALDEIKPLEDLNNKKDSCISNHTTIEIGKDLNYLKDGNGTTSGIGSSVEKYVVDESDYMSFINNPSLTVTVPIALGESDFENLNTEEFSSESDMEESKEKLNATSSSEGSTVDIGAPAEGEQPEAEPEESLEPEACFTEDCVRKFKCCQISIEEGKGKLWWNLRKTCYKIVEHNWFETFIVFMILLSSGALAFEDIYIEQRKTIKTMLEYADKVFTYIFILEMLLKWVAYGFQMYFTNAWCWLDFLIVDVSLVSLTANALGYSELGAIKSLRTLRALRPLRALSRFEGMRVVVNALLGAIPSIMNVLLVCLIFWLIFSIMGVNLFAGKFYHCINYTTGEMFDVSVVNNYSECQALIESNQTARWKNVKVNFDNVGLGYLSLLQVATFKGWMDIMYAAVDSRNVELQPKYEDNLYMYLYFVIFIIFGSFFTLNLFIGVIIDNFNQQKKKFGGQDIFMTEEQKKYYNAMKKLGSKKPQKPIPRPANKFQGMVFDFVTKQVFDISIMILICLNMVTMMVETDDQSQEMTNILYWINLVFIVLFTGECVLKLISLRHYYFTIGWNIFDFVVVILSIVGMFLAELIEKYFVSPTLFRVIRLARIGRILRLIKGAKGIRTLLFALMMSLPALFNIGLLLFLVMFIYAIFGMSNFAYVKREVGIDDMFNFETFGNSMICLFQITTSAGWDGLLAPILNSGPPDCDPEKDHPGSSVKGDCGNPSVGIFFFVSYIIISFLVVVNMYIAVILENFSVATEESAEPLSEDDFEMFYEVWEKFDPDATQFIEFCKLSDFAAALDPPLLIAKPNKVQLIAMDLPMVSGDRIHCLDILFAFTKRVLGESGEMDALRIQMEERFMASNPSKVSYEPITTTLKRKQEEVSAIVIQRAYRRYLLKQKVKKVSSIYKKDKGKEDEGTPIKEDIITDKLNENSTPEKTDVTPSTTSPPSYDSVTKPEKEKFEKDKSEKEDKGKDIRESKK

[28] = biological target: Sodium channel protein type 2 subunit alpha (Rattus norvegicus) (UniProt P04775); test: (§1) Inhibition of rat Nav1.2 channel expressed in chinese hamster CHL1610 cells at preconditioning pulse of -67 mV after 2 to 3 mins by whole-cell patch-clamp technique; format: cell-based
[29] = biological target: Sodium channel protein type 2 subunit alpha (Rattus norvegicus, UniProt P04775); test: as §1; format: cell-based
Sequence of Sodium channel protein type 2 subunit alpha (P04775 whole entry): as the sequence (P04775 whole entry, looked up) above

[30] = biological target: Voltage-dependent N-type calcium channel subunit alpha-1B (Rattus norvegicus) (UniProt Q02294); test: Inhibition of rat Cav2.2 channel expressed in HEK cells assessed as depolarization-induced calcium influx by fluorescence-based assay; format: cell-based; settings: HEK293
Sequence of Voltage-dependent N-type calcium channel subunit alpha-1B (Rattus norvegicus) (Q02294 whole entry, looked up): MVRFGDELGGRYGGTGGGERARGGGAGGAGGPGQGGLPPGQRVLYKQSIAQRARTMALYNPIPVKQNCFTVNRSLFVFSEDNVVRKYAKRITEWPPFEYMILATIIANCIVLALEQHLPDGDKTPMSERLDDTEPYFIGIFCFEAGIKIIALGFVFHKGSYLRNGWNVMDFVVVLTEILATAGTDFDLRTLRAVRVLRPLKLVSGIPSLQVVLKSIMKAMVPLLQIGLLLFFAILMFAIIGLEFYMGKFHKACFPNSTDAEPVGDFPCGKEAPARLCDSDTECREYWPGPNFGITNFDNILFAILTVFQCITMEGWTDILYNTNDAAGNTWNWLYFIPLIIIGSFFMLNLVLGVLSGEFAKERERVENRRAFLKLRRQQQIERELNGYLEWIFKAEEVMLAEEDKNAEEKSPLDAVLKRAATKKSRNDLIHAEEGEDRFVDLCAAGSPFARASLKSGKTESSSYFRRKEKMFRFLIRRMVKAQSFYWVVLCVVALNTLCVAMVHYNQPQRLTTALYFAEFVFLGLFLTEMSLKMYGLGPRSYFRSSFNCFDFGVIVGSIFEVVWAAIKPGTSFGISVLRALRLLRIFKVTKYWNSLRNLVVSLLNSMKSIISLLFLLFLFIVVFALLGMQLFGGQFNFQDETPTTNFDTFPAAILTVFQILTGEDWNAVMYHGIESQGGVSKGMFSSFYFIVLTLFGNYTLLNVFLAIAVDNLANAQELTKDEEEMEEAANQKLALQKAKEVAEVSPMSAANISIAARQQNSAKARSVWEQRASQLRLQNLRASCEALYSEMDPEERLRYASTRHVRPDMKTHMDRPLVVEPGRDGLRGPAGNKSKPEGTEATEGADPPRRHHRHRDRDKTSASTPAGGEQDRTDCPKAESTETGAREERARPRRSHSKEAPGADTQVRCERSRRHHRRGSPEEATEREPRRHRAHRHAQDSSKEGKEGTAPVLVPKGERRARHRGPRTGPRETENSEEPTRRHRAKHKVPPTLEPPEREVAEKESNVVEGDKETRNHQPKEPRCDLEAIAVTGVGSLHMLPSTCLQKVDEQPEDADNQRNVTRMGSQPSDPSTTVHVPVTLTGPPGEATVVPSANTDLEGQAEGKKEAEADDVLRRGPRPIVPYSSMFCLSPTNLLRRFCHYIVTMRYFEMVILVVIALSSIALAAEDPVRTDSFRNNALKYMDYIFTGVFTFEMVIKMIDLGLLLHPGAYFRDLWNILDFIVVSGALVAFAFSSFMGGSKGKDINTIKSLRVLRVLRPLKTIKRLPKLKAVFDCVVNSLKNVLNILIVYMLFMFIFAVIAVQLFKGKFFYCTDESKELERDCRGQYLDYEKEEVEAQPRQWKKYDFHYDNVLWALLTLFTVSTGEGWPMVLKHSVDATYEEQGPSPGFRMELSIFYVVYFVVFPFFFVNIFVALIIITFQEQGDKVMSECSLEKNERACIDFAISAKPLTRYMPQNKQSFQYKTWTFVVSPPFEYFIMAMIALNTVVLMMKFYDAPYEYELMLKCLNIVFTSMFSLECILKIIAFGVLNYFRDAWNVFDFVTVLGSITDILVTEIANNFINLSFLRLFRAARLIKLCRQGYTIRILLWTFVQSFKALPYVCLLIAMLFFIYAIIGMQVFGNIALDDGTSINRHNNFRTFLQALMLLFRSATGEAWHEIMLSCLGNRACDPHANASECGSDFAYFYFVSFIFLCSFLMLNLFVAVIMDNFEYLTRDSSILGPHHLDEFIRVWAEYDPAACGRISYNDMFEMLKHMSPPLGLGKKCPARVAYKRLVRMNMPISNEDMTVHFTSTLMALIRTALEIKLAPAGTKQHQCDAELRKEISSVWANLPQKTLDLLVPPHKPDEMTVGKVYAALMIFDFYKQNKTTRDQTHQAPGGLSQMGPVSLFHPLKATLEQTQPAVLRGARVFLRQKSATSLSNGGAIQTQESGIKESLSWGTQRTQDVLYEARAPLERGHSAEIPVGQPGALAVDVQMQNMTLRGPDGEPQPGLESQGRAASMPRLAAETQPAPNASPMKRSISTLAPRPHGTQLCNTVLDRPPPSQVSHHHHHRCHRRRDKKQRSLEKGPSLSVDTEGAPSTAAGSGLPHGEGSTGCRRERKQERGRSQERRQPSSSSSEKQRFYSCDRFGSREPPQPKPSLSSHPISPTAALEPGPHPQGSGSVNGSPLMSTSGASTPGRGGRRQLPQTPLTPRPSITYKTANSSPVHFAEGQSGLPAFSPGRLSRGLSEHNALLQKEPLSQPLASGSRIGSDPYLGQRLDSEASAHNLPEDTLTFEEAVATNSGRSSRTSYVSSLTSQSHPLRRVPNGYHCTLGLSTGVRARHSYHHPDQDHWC

[31] = biological target: Voltage-dependent N-type calcium channel subunit alpha-1B (Rattus norvegicus) (UniProt Q02294); test: (§2) Inhibition of rat Cav2.2 channel expressed in 0.07 Hz frequency-stimulated HEK cells by whole-cell patch-clamp technique; format: cell-based; settings: HEK293
[32] = biological target: Voltage-dependent N-type calcium channel subunit alpha-1B (Rattus norvegicus, UniProt Q02294); test: as §2; format: cell-based, HEK293
Sequence of Voltage-dependent N-type calcium channel subunit alpha-1B (Q02294 whole entry): as the sequence (Q02294 whole entry, looked up) above

[33] = biological target: Voltage-dependent N-type calcium channel subunit alpha-1B (Rattus norvegicus) (UniProt Q02294); test: Inhibition of rat Cav2.2 channel expressed in 0.07 Hz frequency-stimulated HEK cells at 30 uM by whole-cell patch-clamp technique; format: cell-based; settings: HEK293
[34] = biological target: Voltage-dependent N-type calcium channel subunit alpha-1B (Rattus norvegicus) (UniProt Q02294); test: Inhibition of rat Cav2.2 channel expressed in 5 Hz frequency-stimulated HEK cells at 30 uM by whole-cell patch-clamp technique; format: cell-based; settings: HEK293
[35] = biological target: Potassium voltage-gated channel subfamily KQT member 2 (Rattus norvegicus) (UniProt O88943); test: Activation of rat Kv7.2 assessed as increase in channel current at membrane potential of -70 to -3- mV at 300 uM by whole-cell patch-clamp technique; format: cell membranes
[36] = species: Mus musculus; test: Inhibition of NMDA receptor in mouse cortical neuron assessed as inhibition of glycine-induced receptor current at 100 uM by whole-cell patch-clamp technique
[37] = species: Mus musculus; test: Inhibition of kainate receptor in mouse cortical neuron assessed as inhibition of kainic acid-induced receptor current at 100 uM by whole-cell patch-clamp technique
[38] = species: Mus musculus; test: Activation of GABA receptor in mouse cortical neuron assessed as increase in GABA-induced receptor current at 100 uM by whole-cell patch-clamp technique
[39] = Metabolic stability in mouse liver microsomes assessed as compound remaining at 2 uM after 10 mins; format: ADME, Microsome; settings: read-out: Stability
[40] = Metabolic stability in rat liver microsomes assessed as compound remaining at 2 uM after 10 mins; format: ADME, Microsome; settings: read-out: Stability
[41] = Metabolic stability in human liver microsomes assessed as compound remaining at 2 uM after 10 mins; format: ADME, Microsome; settings: read-out: Stability
[42] = Half life in human liver microsomes at 2 uM; format: ADME, Microsome
[43] = Volume of distribution at steady state in mouse at 30 mg/kg, po and 3 mg/kg, iv administered as bolus dose; format: ADME, organism-based; settings: in vivo, read-out: Vdss
[44] = Bioavailability in mouse at 30 mg/kg, po and 3 mg/kg, iv administered as bolus dose; format: ADME, organism-based; settings: in vivo
[45] = Cmax in mouse at 30 mg/kg, po administered as bolus dose; format: ADME, organism-based; parameters: dose 30 mg/kg, route oral; settings: in vivo
[46] = Half life in mouse at 30 mg/kg, po administered as bolus dose; format: ADME, organism-based; parameters: dose 30 mg/kg, route oral; settings: in vivo
[47] = Half life in mouse at 3 mg/kg, iv administered as bolus dose; format: ADME, organism-based; parameters: dose 3 mg/kg, route intravenous; settings: in vivo
[48] = Clearance in mouse at 30 mg/kg, po and 3 mg/kg, iv administered as bolus dose; format: ADME, organism-based; settings: in vivo
[49] = Bioavailability in rat at 2 mg/kg, po; format: ADME, organism-based; settings: in vivo
[50] = Bioavailability in rat at 10 mg/kg, po; format: ADME, organism-based; settings: in vivo
[51] = test system: Mus musculus; test: Total body water content in mouse at 30 mg/kg, po and 3 mg/kg, iv administered as bolus dose; format: ADME, organism-based; settings: in vivo
[52] = test system: Rattus norvegicus; test: Total body water content in rat at 2 mg/kg, iv; format: ADME, organism-based; parameters: dose 2 mg/kg, route intravenous; settings: in vivo
[53] = Ratio of drug level in brain to plasma in rat at 30 mg/kg, po up to 6 hrs; format: ADME, organism-based; parameters: dose 30 mg/kg, route oral; settings: brain and plasma, read-out: BPR
[54] = Plasma concentration in rat at 30 mg/kg, po after 2 hrs by LC/MS analysis; format: ADME, organism-based; parameters: dose 30 mg/kg, route oral
[55] = Drug level in rat brain at 30 mg/kg, po after 2 hrs by LC/MS analysis; format: ADME, organism-based; parameters: dose 30 mg/kg, route oral; settings: read-out: Drug uptake

## NS(=O)(=O)NCc1csc2ccccc12
[1]
  remaining at 4 h: 60%
[2]
  Activity: 31%
[3]
  Activity: 9%
[4]
  Activity: 48%
[5]
  Activity: 0.5%
[6]
  Activity: 4.2%
[7]
  Activity: 78%
[8]
  Activity: 46%
[9]
  ED50: 107 mg/kg
[10]
  ED50: 119 mg/kg
[11]
  IC50: 66 µM
[12]
  IC50: 25 µM
[13]
  ED50: 156 mg/kg
[14]
  ED50: 106 mg/kg
[15]
  ED50: 161 mg/kg
[16]
  Activity: 129%
[17]
  Activity: 147%
[18]
  Activity: 141%
[19]
  Activity: 159%
[20]
  TD50: 182 mg/kg
[21]
  TD50: > 500 mg/kg
[22]
  ED50: 34 mg/kg
[23]
  ED50: 21 mg/kg
[24]
  Ratio ED50: 5
[25]
  Activity: 64%
[26]
  Ratio TD50/ED50: >15
[27]
  inhibition: inactive
[28]
  inhibition: Dose-dependent effect
[29]
  IC50: 48 µM
[30]
  inhibition: Dose-dependent effect
[31]
  inhibition: Dose-dependent effect
[32]
  IC50: 133 µM
[33]
  inhibition: 20%
[34]
  inhibition: 30%
[35]
  Activity: inactive
[36]
  inhibition: 23%
[37]
  inhibition: 8%
[38]
  inhibition: 2%
[39]
  remaining at 10 min, 2 µM: 83%
[40]
  remaining at 10 min, 2 µM: 76%
[41]
  remaining at 10 min, 2 µM: 90%
[42]
  half-life at 2 µM: > 1.67 h
[43]
  Vd: 2.9 L/kg
[44]
  bioavailability: 59%
[45]
  Cmax: 3900 ng/mL
[46]
  half-life: 1.5 h
[47]
  half-life: 1.5 h
[48]
  clearance: 30 mL/min/kg
[49]
  bioavailability: 89%
[50]
  bioavailability: 96%
[51]
  Activity: 725 mL/kg
[52]
  Activity: 670 mL/kg
[53]
  Kp at 6 h: 2.5
[54]
  concentration at 2 h: 19 µM
[55]
  concentration at 2 h: 47 µM
